A short description of data set [1]: solubilities of active compounds in solvents. The class given is physicochemical. As to the method:
The flash point of 130° C. is sufficiently high for safe production. Studies with selected fluorinated antiparasitics in triethyl phosphate formulations show good and long-lasting activity against fleas and various ticks on dogs and cats.

A short description of data set [2]: toxicity of triethyl phosphate.
Data set [3] in a line: skin compatibility of triethyl phosphate. To be noted: with rats, dogs and cats.
[4] abbreviates: solvent 83.3% propylene carbonate 16.7% benzyl alcohol.

Read-outs that look alike come from different tables or passages of the source.

For the compound `O=C(NC1CC1)c1cc(-c2cnn(-c3c(Cl)cc(C(F)(C(F)(F)F)C(F)(F)F)cc3C(F)(F)F)c2)cnc1Cl` [Compound 2, 2-chloro-5-[1-[2-chloro-4-[1,2,2,2-tetrafluoro-1-(trifluoromethyl)ethyl]-6-(trifluoromethyl)phenyl]-1H-pyrazol-4-yl]-N-cyclopropyl-3-pyridinecarboxamide], in data set [1] (setting [4]), the “solubility in 83.3% propylene carbonate 16.7% benzyl alcohol” value is recorded as 14% (w/w). The “solubility in propylene carbonate” value in data set [1] (solvent propylene carbonate) was 4% (w/w). For the same compound, in data set [1] (solvent triethyl phosphate), the “solubility in triethyl phosphate” value was 40% (w/w).
On the same counts, the results for `Cn1nc(C(F)(F)C(F)(F)F)c(C(F)(F)F)c1-n1cc(-c2ccc(Cl)c(C(=O)NC3(C#N)CC3)c2)cn1` [tigolaner] are 20% (w/w), 26% (w/w) and 52% (w/w).
On the same counts, the results for `O=C(NC1CC1)c1cc(-c2cnn(-c3c(Cl)cc(C(F)(C(F)(F)F)C(F)(F)F)cc3OC(F)(F)F)c2)cnc1Cl` [Compound 1, 2-chloro-5-[1-[2-chloro-4-[1,2,2,2-tetrafluoro-1-(trifluoromethyl)ethyl]-6-(trifluoromethoxy)phenyl]-1H-pyrazol-4-yl]-N-cyclopropyl-3-pyridinecarboxamide] are 17% (w/w), 5% (w/w) and 44% (w/w).
On the same counts, the results for `N#Cc1nn(-c2c(Cl)cc(C(F)(F)F)cc2Cl)c(NCc2ccccn2)c1SC(F)F` [pyriprole] are 28% (w/w), 21% (w/w) and 49% (w/w).
Take `CCOP(=O)(OCC)OCC` [Triethyl phosphate, triethyl phosphate]: the toxicity entry in data set [2] was “low toxicity”. Further, in data set [3], the skin compatibility result is on record as “excellent skin compatibility”.
Turning to `Cc1cc(C2=NOC(c3cc(Cl)cc(Cl)c3)(C(F)(F)F)C2)ccc1C(=O)NCC(=O)NCC(F)(F)F` (centres unmarked) [fluralaner], in data set [1] (setting [4]), the “solubility in 83.3% propylene carbonate 16.7% benzyl alcohol” value is 13% (w/w). Also, the “solubility in propylene carbonate” value in data set [1] (solvent propylene carbonate) is given as 7% (w/w). Also, in data set [1] (solvent triethyl phosphate), the “solubility in triethyl phosphate” value is reported as 41% (w/w).
The matching figures for `CON=CNC(=O)c1ccc(C2=NOC(c3cc(Cl)cc(Cl)c3)(C(F)(F)F)C2)cc1C` (centres unmarked) [fluxametamide]: 6% (w/w), 3% (w/w) and 20% (w/w).
`N#Cc1nn(-c2c(Cl)cc(C(F)(F)F)cc2Cl)c(N)c1[S+]([O-])C(F)(F)F` (centres unmarked) [fipronil]: in data set [1], the “solubility in 83.3% propylene carbonate 16.7% benzyl alcohol” value is on record as 5% (w/w), the “solubility in propylene carbonate” value was 11% (w/w) and the “solubility in triethyl phosphate” value is recorded as 36% (w/w).

The record behind these values is patent publication US11344532B2, “Topically administrable formulation for the control and prevention of animal parasites” (BAYER ANIMAL HEALTH GMBH, priority 2017, dated 2022).
